Experimental data as given in PubChem BioAssay (NCI).
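Here, GI50 denotes the concentration required for 50% inhibition of growth. TGI: total growth inhibition.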

Assays:
Assay in all cases: DTP human tumour cell line panel, 384-well format
OVCAR-5 ovarian = test system: OVCAR-5 ovarian
MDA-MB-435 melanoma = test system: MDA-MB-435 melanoma
SF-268 CNS = test system: SF-268 CNS
OVCAR-3 ovarian = test system: OVCAR-3 ovarian
EKVX NSCLC = test system: EKVX NSCLC
HOP-92 NSCLC = test system: HOP-92 NSCLC
TK-10 renal = test system: TK-10 renal
DU-145 prostate = test system: DU-145 prostate
OVCAR-8 ovarian = test system: OVCAR-8 ovarian
SK-OV-3 ovarian = test system: SK-OV-3 ovarian
HOP-62 NSCLC = test system: HOP-62 NSCLC
HCT-116 colon = test system: HCT-116 colon
M14 melanoma = test system: M14 melanoma
NCI-H460 NSCLC = test system: NCI-H460 NSCLC
HT29 colon = test system: HT29 colon
HCT-15 colon = test system: HCT-15 colon
UO-31 renal = test system: UO-31 renal
BT-549 breast = test system: BT-549 breast
SN12C renal = test system: SN12C renal
MDA-MB-231 breast = test system: MDA-MB-231 breast
K-562 leukemia = test system: K-562 leukemia
NCI-H522 lung = test system: NCI-H522 lung
NCI/ADR-RES ovarian = test system: NCI/ADR-RES ovarian
SK-MEL-28 melanoma = test system: SK-MEL-28 melanoma
ACHN renal = test system: ACHN renal
MALME-3M melanoma = test system: MALME-3M melanoma
SNB-19 CNS = test system: SNB-19 CNS
U251 glioblastoma = test system: U251 glioblastoma
LOX IMVI melanoma = test system: LOX IMVI melanoma
SF-539 CNS = test system: SF-539 CNS
HL-60(TB) leukemia = test system: HL-60(TB) leukemia
RPMI-8226 leukemia = test system: RPMI-8226 leukemia
RXF 393 renal = test system: RXF 393 renal
CAKI-1 renal = test system: CAKI-1 renal
A498 renal = test system: A498 renal
CCRF-CEM leukemia = test system: CCRF-CEM leukemia
IGROV1 ovarian = test system: IGROV1 ovarian
A549 NSCLC = test system: A549 NSCLC
SF-295 CNS = test system: SF-295 CNS
COLO 205 colon = test system: COLO 205 colon
OVCAR-4 ovarian = test system: OVCAR-4 ovarian
NCI-H23 lung = test system: NCI-H23 lung
MCF7 breast = test system: MCF7 breast
MDA-MB-468 breast = test system: MDA-MB-468 breast
T-47D breast = test system: T-47D breast
NCI-H226 lung = test system: NCI-H226 lung
HCC-2998 colon = test system: HCC-2998 colon
MOLT-4 leukemia = test system: MOLT-4 leukemia
SW-620 colon = test system: SW-620 colon
786-0 renal = test system: 786-0 renal
HS 578T breast = test system: HS 578T breast
PC-3 prostate = test system: PC-3 prostate
SR leukemia = test system: SR leukemia
KM12 colon = test system: KM12 colon
SK-MEL-5 melanoma = test system: SK-MEL-5 melanoma
UACC-257 melanoma = test system: UACC-257 melanoma
NCI-H322M lung = test system: NCI-H322M lung
SNB-75 CNS = test system: SNB-75 CNS

COc1ccc2c(c[n+](C)c3c4cc5c(cc4ccc23)OCO5)c1OC
GI50 (OVCAR-5 ovarian): 1760 nM
TGI (OVCAR-5 ovarian): 3160 nM
GI50 (MDA-MB-435 melanoma): 1630 nM
TGI (MDA-MB-435 melanoma): 2990 nM
GI50 (SF-268 CNS): 1340 nM
TGI (SF-268 CNS): 2620 nM
GI50 (OVCAR-3 ovarian): 362 nM
TGI (OVCAR-3 ovarian): 1330 nM
GI50 (EKVX NSCLC): 1450 nM
TGI (EKVX NSCLC): 2760 nM
GI50 (HOP-92 NSCLC): 1510 nM
TGI (HOP-92 NSCLC): 2850 nM
GI50 (TK-10 renal): 1420 nM
TGI (TK-10 renal): 2730 nM
GI50 (DU-145 prostate): 1460 nM
TGI (DU-145 prostate): 2770 nM
GI50 (OVCAR-8 ovarian): 395 nM
TGI (OVCAR-8 ovarian): 1430 nM
GI50 (SK-OV-3 ovarian): 1710 nM
TGI (SK-OV-3 ovarian): 3130 nM
GI50 (HOP-62 NSCLC): 1060 nM
TGI (HOP-62 NSCLC): 2250 nM
GI50 (HCT-116 colon): 399 nM
TGI (HCT-116 colon): 1380 nM
GI50 (M14 melanoma): 1590 nM
TGI (M14 melanoma): 2940 nM
GI50 (NCI-H460 NSCLC): 1520 nM
TGI (NCI-H460 NSCLC): 2850 nM
GI50 (HT29 colon): 1680 nM
TGI (HT29 colon): 3050 nM
GI50 (HCT-15 colon): 825 nM
TGI (HCT-15 colon): 2070 nM
GI50 (UO-31 renal): 1400 nM
TGI (UO-31 renal): 2700 nM
GI50 (BT-549 breast): 680 nM
TGI (BT-549 breast): 1940 nM
GI50 (SN12C renal): 615 nM
TGI (SN12C renal): 1890 nM
GI50 (MDA-MB-231 breast): 721 nM
TGI (MDA-MB-231 breast): 1990 nM
GI50 (K-562 leukemia): 1610 nM
TGI (K-562 leukemia): 2970 nM
GI50 (NCI-H522 lung): 1440 nM
TGI (NCI-H522 lung): 2750 nM
GI50 (NCI/ADR-RES ovarian): 1020 nM
TGI (NCI/ADR-RES ovarian): 2590 nM
GI50 (SK-MEL-28 melanoma): 1900 nM
TGI (SK-MEL-28 melanoma): 3350 nM
GI50 (ACHN renal): 1820 nM
TGI (ACHN renal): 3210 nM
GI50 (MALME-3M melanoma): 748 nM
TGI (MALME-3M melanoma): 1960 nM
GI50 (SNB-19 CNS): 1500 nM
TGI (SNB-19 CNS): 2840 nM
GI50 (U251 glioblastoma): 866 nM
TGI (U251 glioblastoma): 2080 nM
GI50 (LOX IMVI melanoma): 1100 nM
TGI (LOX IMVI melanoma): 2310 nM
GI50 (SF-539 CNS): 1630 nM
TGI (SF-539 CNS): 2990 nM
GI50 (HL-60(TB) leukemia): 182 nM
TGI (HL-60(TB) leukemia): 324 nM
GI50 (RPMI-8226 leukemia): 440 nM
TGI (RPMI-8226 leukemia): 1460 nM
GI50 (RXF 393 renal): 1570 nM
TGI (RXF 393 renal): 2940 nM
GI50 (CAKI-1 renal): 1270 nM
TGI (CAKI-1 renal): 2560 nM
GI50 (A498 renal): 1870 nM
TGI (A498 renal): 3390 nM
GI50 (CCRF-CEM leukemia): 146 nM
TGI (CCRF-CEM leukemia): 278 nM
GI50 (IGROV1 ovarian): 1620 nM
TGI (IGROV1 ovarian): 2970 nM
GI50 (A549 NSCLC): 1830 nM
TGI (A549 NSCLC): 3270 nM
GI50 (SF-295 CNS): 1740 nM
TGI (SF-295 CNS): 3150 nM
GI50 (COLO 205 colon): 1570 nM
TGI (COLO 205 colon): 2920 nM
GI50 (OVCAR-4 ovarian): 1500 nM
TGI (OVCAR-4 ovarian): 2870 nM
GI50 (NCI-H23 lung): 1000 nM
TGI (NCI-H23 lung): 2160 nM
GI50 (MCF7 breast): 1130 nM
TGI (MCF7 breast): 2350 nM
GI50 (MDA-MB-468 breast): 365 nM
TGI (MDA-MB-468 breast): 1360 nM
GI50 (T-47D breast): 1630 nM
TGI (T-47D breast): 2990 nM
GI50 (NCI-H226 lung): 1830 nM
TGI (NCI-H226 lung): 3220 nM
GI50 (HCC-2998 colon): 1590 nM
TGI (HCC-2998 colon): 2940 nM
GI50 (MOLT-4 leukemia): 163 nM
TGI (MOLT-4 leukemia): 300 nM
GI50 (SW-620 colon): 267 nM
TGI (SW-620 colon): 758 nM
GI50 ([…]-0 renal): 1340 nM
TGI (786-0 renal): 2630 nM
GI50 (HS 578T breast): 1550 nM
TGI (HS 578T breast): 2890 nM
GI50 (PC-3 prostate): 1190 nM
TGI (PC-3 prostate): 2420 nM
GI50 (SR leukemia): 174 nM
TGI (SR leukemia): 317 nM
GI50 (KM12 colon): 1470 nM
TGI (KM12 colon): 2800 nM
GI50 (SK-MEL-5 melanoma): 720 nM
TGI (SK-MEL-5 melanoma): 2040 nM
GI50 (UACC-257 melanoma): 1230 nM
TGI (UACC-257 melanoma): 2480 nM
GI50 (NCI-H322M lung): 1770 nM
TGI (NCI-H322M lung): 3190 nM
GI50 (SNB-75 CNS): 1640 nM
TGI (SNB-75 CNS): 3000 nM
